# Laboratory results published in patent US20070225213A1, “Nucleic acid carriers for delivery of therapeutic agents” (priority 2006, published 2007).
# Assays:
# [1] = tested on: MCF7; assay: Cell uptake by MTN fluorescence EX620/EM680 (Examples 10 and 13, EX051605); assay type: cell-based, human; details: 10% w/w loading in DNA
# Description: Materials: HSGDNA, MTN, ODNAS1116 (phosphorothioated, single stranded DNA, and Beta-cyclodextrin polymer (BCD-SBE, KKBIOMED Inc.) were previously prepared in water at 10 mg/ml, 1 mg/ml, 0.95 mg/ml, and 10 mg/ml respectively.
# Procedure: For NAC-MTN, combined 37 ul HSGDNA (herring genomic DNA, Promega Inc.), 1426 ul HBSS( Hank's buffered saline, Sigma-Aldrich), with 37 ul of MTN, followed by 1500 ul 2× DMEM media to give 3 ml final and 24 uM (24 micro-molar) MTN and 10% w/w drug loading of MTN. For NAC-MTN (AR1505) combined 62 ul of HSDNA (deg. herring sperm DNA, Sigma) with 2377 ul HBSS, 61.7 ul MTN, 2500 ul 2× media to give 5 ml final and 24 uM MTN and 10% w/w drug loading of MTN to HSDNA. […]
# Plate#1 Media was aspirated and cells treated with 100 ul of either NAC-MTN, CD-MTN, or MTN at 24 uM MTN final or 12.3 ug/ml MTN in all samples. Samples containing MTN were incubated 4 hours, removed, and fluorescence taken at EX620/EM680. […]
# Samples were incubated 4 hours, removed, and MTN fluorescence taken at EX620/EM680. […] Average MTN fluorescence was averaged from 6 wells. For each cell type, MTN fluorescence was highest in MTN treated cells, followed by CD-MTN, and lowest in NAC-MTN. […]
# PLATE#2: Dispensed 50 ul from source plate into plate #2 to give 150 ul final vol 4.1 ug/ml, 8 uMfinal per well, pre-read fluorescence w samples (bkgd) incubated 5 hr, removed, replaced w/ media, read fluor. […]
# [2] = DNA addition method: NAC complexed vs unbound MTN in mouse urine (Example 17)
# Procedure: To determine if NAC-MTN was excreted in urine as a complex, MTN fluorescence due to unbound NAC was assayed by an addition method. DNA was added to urine from both groups and subsequent change in fluorescence was measured.
# [3] = tested on: MCF7; assay: Effect of plating time on uptake of NAC-MTN and MTN, fluorescence (Example 11); assay type: cell-based, human
# Description: The effect of plating time on the differential rates of uptake between NAC-MTN and MTN were assayed in cells treated <1 hour and 24 hours after plating.
# On day 1, MCF7, COS7, 3T3, and BHK21 cells were plated out in a standard tissue culture plate. After incubation of 20 minutes samples were added to cells in rows A, C, E, and G. Cells were incubated at 37C in a standard atmosphere of 5%CO2.
# On day 2, samples were added to rows D, F, and H and the fluorescence was obtained EX620/EM680 S=80. Samples were removed from A,C,E and G, replaced with media and fluorescence read again. On day 2 observed significant drug toxicity in cells of rows A,C, E, G. Sample addition was postponed in row B since MCF7 were not yet confluent.
# On day 3, added samples to cells in row B containing confluent MCF7's, removed samples from rows D, F, and H replaced with media and read fluorescence.
# Fluorescence data from cells taken after removal of media was used to quantitate total MTN retained in the cells. Fluorescence data were converted to mg/ml MTN using a standard curve prepared with free MTN or NAC-MTN.
# The percentage difference in fluorescence between cells treated with NAC-MTN or MTN alone was used to compare relative drug uptake.
# The MTN fluorescence ratios were obtained by dividing MTN fluorescence of cells incubated for 24 hours by fluorescence of cells incubated 30 minutes. […] The uptake in BHK21 was roughly equivalent for NAC-MTN regardless of plate adherence, however it should be noted that BHK21 adhere very rapidly to the plate.
# Fluorescence data were converted to micromolar drug concentrations (uM MTN) using a standard curve for either nucleic acid bound or unbound drug, and drug uptake ratios were obtained by dividing the t(24 hour)/t(30 min.). The ratios of absolute drug concentration per well show more dramatic differences in uptake as shown below.
smiles,measurement,setting,value
"O=C1c2c(O)ccc(O)c2C(=O)c2c(NCCNCCO)ccc(NCCNCCO)c21 [MTN, mitoxantrone]",% reduction in fluorescence relative to MTN alone (MTN = 0%),"[1]; Plate#1, 24 uM MTN, 4 hours",0%
same,% reduction in fluorescence relative to MTN alone (MTN = 0%),"[1]; Plate#2, 8 uM MTN",0%
same,% Change Fluor. on DNA addition to urine,[2]; Elapsed Time 2.5 hr,83%
same,% Change Fluor. on DNA addition to urine,[2]; Elapsed Time 5 hr,66%
same,% Change Fluor. on DNA addition to urine,[2]; Elapsed Time 8 hr,71%
same,MTN FLUOR Ratio of t(24)/t(<1),[3],0.75
same,FLUOR (MTN fluorescence in cells),[3]; cells treated 24 hour after plating,18819
same,FLUOR (MTN fluorescence in cells),[3]; cells treated <1 hour after plating,16651
same,Ratio uM MTN of t(24)/t(<1),[3]; from standard curve for bound or unbound drug,1.2
